From patent US20200123271A1, “COMPOSITION FOR ENHANCING SENSITIVITY OF PROSTATE CANCER TO ANTICANCER DRUG AND USE THEREOF” (KOREA INSTITUTE OF SCIENCE AND TECHNOLOGY, priority 2018, published 2020) come the findings set out here.

Common to all, as to assay type: cell-based
One series has as its system pgp. As to the kind of experiment: Expression of Pgp (pgp-glo assay, ATP level by luminescence). As to the method:
NCI-H660 and LNCaP cells were seeded on white transparent bottom 96-well plates at a density of 10^4 cells/well. After 24 hours, the cells were treated with CRISPR ERG, crisprTMPRSS2-ERG, and 30 μM casodex, respectively, for 48 hours. 20 μL of a pgp-glo assay buffer (Promega, USA) was added to all wells except for Na3VO4 condition. 20 μL of 0.25 mM Na3VO4 was added to the Na3VO4 condition. Reaction was initiated by adding 10 μL of 25 mM MgATP. The plates were mixed for a while and then incubated at 37° C. for 40 minutes. The 40 μL of an ATP detection reagent was added to all wells. Then, the plates were incubated at room temperature for 20 minutes and luminescence was measured.

The subject of series [1] is alpha tubulin, beta3 tubulin. The experiment in a line: Activity of tubulin protein (Western blotting). The conditions noted are these: LNCaP cells, knock-out (FIG. 4). As to the method:
NCI-H660 and LNCaP cell lines were seeded on 6-well plates at a density of 2×10^5 cells/well. After 24 hours, the cells were treated with CRISPR ERG, CRISPR TMPRSS2-ERG, and 30 μM casodex, respectively, for 48 hours. The cells were lysed using Pro-prep protein extraction solution (Intron Biotechnology, South Korea). Cell lysates were quantified using a BCA protein assay kit (Thermo Fisher Scientific, USA).
Then, the expression of proteins was identified by Western blotting. Specifically, SDS 5× loading buffer was added to protein samples diluted to 10-20 μg and heated for 5 minutes. The samples were placed in 4-20% Mini-protean TGX gel (Biorad, USA) and run at 120 V for 60 minutes. Then, the gel was transferred to a nitrocellulose membrane at 300 mA for 90 minutes. The membrane was blocked by 3% BSA in PBS and incubated overnight with a primary antibody in PBS containing 1% BSA at 4° C. The membrane was washed three times with PBS containing with 0.01% Tween 20. A secondary antibody was cultured in a PBS containing 1% BSA for 1 hour at room temperature. The membrane was washed three times with PBS containing 0.01% Tween 20. Then, the membrane was visualized with LAS-3000 (Fujifilm, Japan).
Background: In western blotting, separated proteins are transferred to a membrane and probed.

A further series has as its system caspase 3/7. As to the kind of experiment: Expression of caspase 3/7 (luminescence assay). The method, then:
NCI-H660 and LNCaP cells were seeded on black transparent bottom 96-well plates at a density of 10^4 cells/well. After 24 hours, the cells were treated with CRISPR ERG, crisprTMPRSS2-ERG, and 30 μM casodex, respectively, for 48 hours. 50 μL of a caspase 3/7 assay buffer (Promega, USA) was added thereto, followed by incubation at room temperature for 1 hour. Then, the activity of caspase 3/7 was detected by measuring luminescence.

A further series has as its system LNCaP cells. The experiment in a line: Cell viability, CellTiter 96 aqueous one solution cell proliferation assay. As to the method:
(§1) NCI-H660 and LNCaP cells were seeded on transparent 96-well plates at a density of 10^4 cells/well. […] 10 μL of a CellTiter 96 aqueous one solution cell proliferation assay buffer (Promega, USA) was added thereto, followed by incubation at 37° C. for 1 hour. Then, cell viability was evaluated by measuring absorbance at […].
(§2) NCI-H660 and LNCaP cells were seeded on transparent 96-well plates at a density of 10^4 cells/well. After 24 hours, the cells were treated with CRISPR ERG, CRISPR TMPRSS2-ERG, and 30 μM casodex, respectively, for 48 hours. 10 μL of a CellTiter 96 aqueous one solution cell proliferation assay buffer (Promega, USA) was added thereto, followed by incubation at 37° C. for 1 hour. Then, cell viability was evaluated by measuring absorbance at […].

Another series concerns NCI-H660 cells. Described as above. The method, then:
as §1, §2

A further series deals with TMPRSS2-ERG gene. The experiment in a line: Expression of TMPRSS2-ERG gene by RNA extraction, cDNA synthesis and PCR. The conditions noted are these: CRISPR treated in combination with 30 μM casodex, 48 hours (FIG. 2C). The method, then:
To identify whether the ERG gene of the cell line prepared in Example 2 was knocked out, expression of the gene was identified by extracting RNA and synthesizing cDNA.
NCI-H660 and LNCaP cell lines were seeded on 6-well plates at a density of 2×10^5 cells/well. After 24 hours, the cells were treated with CRISPR ERG, CRISPR TMPRSS2-ERG, and 30 μM casodex, respectively, for 48 hours. 1 mL of Trizol was added thereto to lyse the cells and the samples were homogenized by voltexing. 100 μL of chloroform was added thereto to separate RNA included in a transparent upper aqueous layer from proteins included in a lower organic layer. The solution was vigorously shaken and incubated at room temperature for 3 minutes. The resultant was centrifuged at 4° C. for 15 minutes at 13,000 rpm to obtain a clean aqueous layer including total RNA. Subsequently, the supernatant of the sample was transferred to a new tube and […] of isopropanol was added to each sample to precipitate RNA. The sample was incubated at room temperature for 10 minutes, and then centrifuged at 13,000 rpm at 4° C. for 15 minutes to obtain pellets of total RNA. Then, the supernatant was decanted and RNA was washed with 1 mL of 75% ethanol. […] RNA was resuspended in RNase-free water and absorbance of RNA was measured at 260 nm to determine a concentration of RNA. […]

[2] abbreviates: LNCaP cells, knock-out in combination with 30 μM casodex (FIG. 3C).
The mark [3] stands for this setting: normal and resistant LNCaP cells, knock-out alone (FIG. 3C).

For the compound “CRISPR ERG: CRISPR sgRNA for ERG, 5′TGCCTACGGAACGCCACACCTGG 3′, delivered with Cas9 nuclease to knock out ERG (listed as DNA, chemistry not given here; the letters are possibly those of the target site)”, the ATP level result in the series on pgp (setting [2]) is recorded as “significantly increased”. In the series with pgp (setting [3]), the ATP level entry was “significantly increased”. In series [1], the “amount of polymeric alpha tubulin” value is “decreased”, the “amount of water-soluble alpha tubulin” value is “increased” and the beta3 tubulin result is “no significant difference”.
With “CRISPR TMPRSS2-ERG: CRISPR sgRNA for TMPRSS2-ERG, 5′AAGGCTTCCTGCCGCGCTCCAGG 3′, delivered with Cas9 nuclease to knock out TMPRSS2-ERG (listed as DNA, chemistry not given here; the letters are possibly those of the target site)”, the “expression of caspase 3/7” value in the series with caspase 3/7 (cell line treated with CRISPR TMPRSS2-ERG alone, 48 hours (FIG. 2D)) is listed as “significantly increased”. Further, the ATP level result in the series on pgp (setting [2]) is reported as “significantly increased”. Also, the ATP level entry in the series on pgp (setting [3]) is “significantly increased”. Further, in series [1], the “amount of polymeric alpha tubulin” value was “decreased”, the “amount of water-soluble alpha tubulin” value was “increased” and the beta3 tubulin result is given as “no significant difference”.
For `CC(O)(CS(=O)(=O)c1ccc(F)cc1)C(=O)Nc1ccc(C#N)c(C(F)(F)F)c1` (stereo not drawn) [casodex], the cell viability entry with LNCaP cells (30 μM casodex in combination with CRISPR TMPRSS2-ERG, 48 hours, compared with CRISPR TMPRSS2-ERG alone (FIG. 2A)) is reported as “significantly reduced”; in the series on LNCaP cells (casodex concentration in the range of 100 μM to 200 μM (FIG. 2A)), “significantly reduced”; in the series on NCI-H660 cells (30 μM casodex in combination with CRISPR TMPRSS2-ERG, 48 hours, compared with CRISPR TMPRSS2-ERG alone (FIG. 2B)), “significantly reduced”; in the series with NCI-H660 cells (casodex concentration in the range of 100 μM to 200 μM (FIG. 2B)), “significantly reduced”. Moreover, the “expression level of TMPRSS2-ERG gene” value in the series on TMPRSS2-ERG gene (LNCaP cell line) and with TMPRSS2-ERG gene (NCI-H660 cell line) was “significantly reduced” each time. The “expression of caspase 3/7” value in the series with caspase 3/7 (30 μM casodex in combination with CRISPR TMPRSS2-ERG, 48 hours, compared with CRISPR TMPRSS2-ERG alone (FIG. 2D)) is given as “more significantly increased”.
